These results are taken from publication PMC12040169 (PLOS Biology, 2025).

One data set can be described thus: in vitro. The note with it: human, hela cells, % viability.
In the case of `N#Cc1cccc(CN2C[C@H](O)C[C@H]2c2nc(-c3ccc4c(c3)OCO4)no2)c1` [CBK288866], the viability at 28.5 h, 10 µM was 90%.
For the compound `OCCNc1ncnc2c1cnn2-c1ccccc1` [CBK077741C], the viability at 28.5 h, 10 µM was 81.3%.
Turning to `N#CCCN(C(=O)NC1CCc2ccccc21)C1CCCCC1` (stereo not shown) [CBK156383], the viability at 28.5 h, 10 µM is 95.5%.
As for `CN1CCN(c2nc3ccccn3c(=O)c2/C=C2\SC(=S)N(CCc3ccccc3)C2=O)CC1` [CBK263131], the viability at 28.5 h, 10 µM is 110%.
For `Cc1cc(=O)n(C)c(=O)n1CCCCCN1CCCC1` [CBK027386], the viability at 28.5 h, 10 µM turned out to be 99.9%.
For `COc1ccc(NC(=O)c2ccc3c(c2)C(=O)N(Cc2ccncc2)C3=O)cc1` [CBK269660], the viability at 28.5 h, 10 µM was determined as 97.7%.
Regarding `Cc1ccccc1-c1cncc(C2CCN(C(=O)Cc3c[nH]c4ccccc34)CC2)n1` [CBK286148], the viability at 28.5 h, 10 µM is 79.4%.
For `CC1CCC(C(N)=O)CN1C(=O)c1csc(Br)c1` (stereo not shown) [CBK305812], the viability at 28.5 h, 10 µM is 92.3%.
`O=C(c1ccc(C#CC2(O)CCCCC2)cc1)N1CCN(Cc2ccccc2)CC1` [CBK263094]: the viability at 28.5 h, 10 µM came to 100%.
Turning to `CCOc1ccc2[nH]c(C(=O)NC3CCCOC3)c(C)c2c1` (stereo not shown) [CBK282529], the viability at 28.5 h, 10 µM came to 113%.
Regarding `Cc1cc(N2CCN(C(=O)CCc3ccccc3)CC2)nc(C(C)C)n1` [CBK305711], the viability at 28.5 h, 10 µM is 99.3%.
In the case of `O=C(Nc1nc2ccc(Cl)cc2s1)c1nc(SCc2ccccc2)ncc1Cl` [CBK268825], the viability at 28.5 h, 10 µM was 98.2%.
For `c1ccc(CN2CC[C@H](Nc3nccnc3-c3cccnc3)C2)cc1` [CBK036978], the viability at 28.5 h, 10 µM came to 104%.
In the case of `O=C(COc1ccc(S(=O)(=O)N2CCCC2)cc1Cl)NCC1CCCO1` (stereo not shown) [CBK268243], the viability at 28.5 h, 10 µM came out at 86.6%.
In the case of `CCOC(=O)CCCCSc1c(CC)c(C)nc2ccccc12` [CBK153458T], the viability at 28.5 h, 10 µM turned out to be 96%.
With `O=C(CC(CN1CCN(Cc2cccc(Cl)c2)CC1)C(=O)O)Nc1cccc(O)c1` (stereo not shown) [CBK286811], the viability at 28.5 h, 10 µM was 88.9%.
The same measure, in the same setting: under `CCn1cc(C(=O)N2C[C@H](C(=O)OC)[C@@H](c3ccccc3F)C2)cn1` [CBK283510] stands 94.2%; under `COc1cc(-c2cn3ccnc3c(N[C@H](CO)C(C)C)n2)cc(OC)c1OC` [CBK066220], 103%.
The same measure, in the same setting: under `C=Cn1cc(CN2CCC(O)(c3ccccc3C)CC2)c(C)n1` [CBK282580] stands 93.7%; under `Cc1cc(CS(=O)(=O)N2CCOCC2c2cccc(F)c2)no1` (stereo not shown) [CBK304093], 95.4%.
For the compound `O=C(Cn1nnc2ccccc2c1=O)NCC(F)(F)F` [CBK304533], the viability at 28.5 h, 10 µM came out at 94.1%.
For the compound `c1ccc(CCNc2cncc(-c3cccs3)n2)nc1` [CBK065510], the viability at 28.5 h, 10 µM amounted to 98.2%.
Consider `CC1CC1C(=O)N(C)C1CCN(c2ncnc3ccccc23)CC1` (stereo not shown) [CBK304972], for which the viability at 28.5 h, 10 µM is 83.3%.
On the same count and under the same terms, under `CCc1nc(CN(C(C)=O)C2CCN(CCc3ccccn3)C2)no1` (stereo not shown) [CBK305372] stands 96.7%.
On the same count and under the same terms, under `COc1ccc(N(CCC#N)S(=O)(=O)c2cccc3nsnc23)cc1` [CBK025851] stands 90.7%; under `CC(C)(C)OC(=O)N1CCC(NCc2ccccn2)CC1` [CBK304603], 97.1%.
Turning to `CN1C(=O)c2ccccc2C(O)C2(C)CN(Cc3ccccc3)CC12` (stereo not shown) [CBK282849], the viability at 28.5 h, 10 µM came to 108%.
`COc1ccccc1Cc1cccc(C2CCCN2C(=O)CCc2ccccc2)n1` (stereo not shown) [CBK286229]: the viability at 28.5 h, 10 µM was 108%.
`Cn1c(C2CC2)nc2c1CCN(Cc1cn3cc(Cl)ccc3n1)C2` [CBK305314]: the viability at 28.5 h, 10 µM was 92.8%.
As to `Cc1cc(C(=O)NCCc2ccc(S(N)(=O)=O)cc2)no1` [CBK268130], the viability at 28.5 h, 10 µM is 99.3%.
As for `O=C(Nc1ccc(F)cc1Cl)c1cnc2n(c1=O)CCS2` [CBK287382], the viability at 28.5 h, 10 µM came out at 104%.
Consider `Cc1ccc(C(=O)O)cc1S(=O)(=O)Nc1ccc(-c2cn3ccsc3n2)cc1` [CBK296688], for which the viability at 28.5 h, 10 µM was found to be 85.2%.
Consider `Cc1c(C(=O)N(C)Cc2csc3ccccc23)nnn1C1CCNCC1` [CBK304103], for which the viability at 28.5 h, 10 µM was found to be 84.6%.
On the same count and under the same terms, the value for `Cn1c(=O)n(C)c2cc(CNC3(c4ccccc4)CC3)ccc21` [CBK282746] was 87.9%; that for `COc1ccc(-c2cc(C(=O)NCCc3ccccn3)cnc2-c2cccc(C)c2)cc1` [CBK036730] was 93.7%.
`COc1cccc(C(=O)c2snc(Nc3ccc(F)cc3)c2N)c1` [CBK269173]: the viability at 28.5 h, 10 µM came out at 117%.
For `Cc1ccccc1NC(=O)CC1c2ccccc2CC(C)(C)N1C` (stereo not shown) [CBK262567], the viability at 28.5 h, 10 µM was 87.4%.
Consider `COc1ccc2[nH]cc(CC(=O)N3CCCC4(CCN(C(=O)c5cc(F)c(F)cc5F)C4)C3)c2c1` (stereo not shown) [CBK131562], for which the viability at 28.5 h, 10 µM turned out to be 88.6%.
On the same count and under the same terms, the value for `COc1cc(/C=N/NC(=O)c2cccnc2)cc([N+](=O)[O-])c1O` [CBK262233] was 86.4%; that for `Cc1cc(NCCc2ccc(=O)[nH]c2)nc(-c2cc(F)c(F)cc2F)n1` [CBK144636C] was 99.3%; that for `O=C(O)c1ccccc1SC1CC(=O)N(CCc2ccccc2)C1=O` (stereo not shown) [CBK269321] was 93.6%.
Same read-out and setting: under `Nc1nc(OCc2ccccc2)cnc1-c1cccc(C(F)(F)F)c1` [CBK145179] stands 99.4%.
`Cn1c(=O)c2c(nc(CN3CCCCC3)n2CCN2CCOCC2)n(C)c1=O` [CBK269281]: the viability at 28.5 h, 10 µM turned out to be 99.2%.
On to `Cc1cccc(C)c1NC(=O)Cn1c(SCC(N)=O)nc2ccccc21` [CBK266684], for which the viability at 28.5 h, 10 µM turned out to be 106%.
For `Cc1nn(CC(=O)NC2CCCC2)c(=O)c2cc3sccc3n12` [CBK284023], the viability at 28.5 h, 10 µM stood at 104%.
On to `CCNc1cccnc1N1CCN(CCc2cc(C)c(O)c(C)c2)CC1` [CBK024361C], for which the viability at 28.5 h, 10 µM came to 108%.
On the same count and under the same terms, the value for `Cc1ccc(C)c(OCCNCCN(C)C)c1Cl` [CBK267816C] was 88.5%; that for `Cc1cccc(-c2nnc(-c3cccc(NC(=O)COc4ccccc4)c3)o2)c1` [CBK269659] was 95.8%.
As to `O=C(Nc1ccccc1Oc1ccc(F)cc1)c1ccc(Cn2cncn2)cc1` [CBK285587], the viability at 28.5 h, 10 µM amounted to 118%.
Still for that read-out and setting: the value for `COc1ccc(-c2cc(C(F)(F)F)nc(SCC(=O)N3CCN(C)CC3)n2)cc1OC` [CBK266194] was 96.1%; that for `COc1ccc2[nH]c3c(c2c1)CCOC31CCN(CCC(F)=C(F)F)CC1` [CBK040118] was 103%; that for `O=C(CSc1nnc(-c2ccco2)n1-c1ccccc1)NCc1ccc2c(c1)OCO2` [CBK267308] was 85.3%.
Regarding `Cc1ncc(CN2CCOC(c3cc(C(=O)NCC(C)C)c4ccccc4n3)C2)s1` (stereo not shown) [CBK285897], the viability at 28.5 h, 10 µM stood at 89.9%.
Consider `CN1CCN(S(=O)(=O)c2ccc(Oc3ccc([N+](=O)[O-])cc3)cc2)CC1` [CBK262248], for which the viability at 28.5 h, 10 µM is 105%.
Turning to `CCn1c(CC2CCN(C(=O)CCn3cc(C)cn3)CC2)nn(C)c1=O` [CBK307584], the viability at 28.5 h, 10 µM was 89.7%.
`Cc1ccc2c(c1)CN(C(=O)C1CC1C)CC1(CCN(C)CC1)O2` (stereo not shown) [CBK284833]: the viability at 28.5 h, 10 µM is 94.5%.
With `Cc1nc(C)c(C(=O)N2CCN(Cc3ccccc3)CC2)s1` [CBK200177], the viability at 28.5 h, 10 µM is 101%.
On the same count and under the same terms, under `OC(COCc1ccc2c(c1)OCO2)CN1CCN(Cc2ccccc2)CC1` (stereo not shown) [CBK278249C] stands 93.5%.
Consider `Cc1cc(=O)cc(C(=O)NC2CCN(c3ncccc3C#N)CC2)o1` [CBK307240], for which the viability at 28.5 h, 10 µM was determined as 86.2%.
As to `CC(C)c1ccc(/C=C/C(=O)NCc2ccc(S(N)(=O)=O)cc2)cc1` [CBK161511], the viability at 28.5 h, 10 µM is 110%.
The same measure, in the same setting: under `Nc1nc(NCc2ccccc2)nc(-c2cc(Cl)ccc2O)n1` [CBK074526] stands 102%; under `O=C(c1ccc(=O)[nH]n1)N1C2CCC1CC(c1ccc(F)cc1)C2` (stereo not shown) [CBK283737], 94.4%; under `Cc1ccc(NC(=O)CSc2nnc3c4c5c(sc4nc(-n4nc(C)cc4C)n23)COC(C)(C)C5)cc1` [CBK268675], 93.2%.
On to `CN(C)c1ccc(CC(=O)Nc2cnc(-c3cccc(C(F)(F)F)c3)c(-c3cccnc3)n2)cc1` [CBK036901], for which the viability at 28.5 h, 10 µM came to 98.2%.
In the case of `Cc1nc(CN2CCC(Oc3nccnc3OCc3ccc(Cl)c(Cl)c3)CC2)cs1` [CBK153787], the viability at 28.5 h, 10 µM came out at 95.9%.
In the case of `COc1ccccc1CNS(=O)(=O)c1ccccc1[N+](=O)[O-]` [CBK261699], the viability at 28.5 h, 10 µM stood at 102%.
The same measure, in the same setting: under `O=C(COc1ccc(Br)cc1C(=O)O)NCCc1ccccc1` [CBK286796] stands 95.3%; under `COc1cccc(Oc2nccnc2-c2ccsc2)c1` [CBK106762], 92.1%.
Consider `Nc1ncc(-c2cccc(Br)c2)nc1NCCCO` [CBK063603], for which the viability at 28.5 h, 10 µM was found to be 91.3%.
As to `O=C(Nc1cc2ccccc2c(Br)n1)N[C@@H]1C[C@H]1c1ccccc1` [CBK063276], the viability at 28.5 h, 10 µM turned out to be 92.3%.
Same read-out and setting: under `Cc1ccccc1NC(=O)Cn1c(=O)cnc2ccccc21` [CBK287852] stands 100%.
As to `COc1ccc2sc(C)[n+](CCC(=O)O)c2c1` [CBK260899B], the viability at 28.5 h, 10 µM came out at 83.5%.
As for `CCc1nn(CC(=O)NCC2CC2)c(=O)c2cc3sccc3n12` [CBK284055], the viability at 28.5 h, 10 µM was found to be 90.5%.
In the case of `O=C(Nc1c(F)cc(F)cc1OC1CCNCC1)c1cnccn1` [CBK050273T], the viability at 28.5 h, 10 µM amounted to 100%.
On the same count and under the same terms, under `Cc1c(C(c2ccc(C(=O)O)cc2)c2c(C)n(C)n(-c3ccccc3)c2=O)c(=O)n(-c2ccccc2)n1C` [CBK261691] stands 102%; under `Nc1ncc(-c2ccoc2)nc1Nc1ccc2[nH]ccc2c1` [CBK063868], 80.5%; under `O=C(O)CCSc1cccc(C(F)(F)F)c1` [CBK012986], 111%.

The data set is the same for the next values; noted with them: human, hela cells, % viability, bulk resorufin, single well.
With `CS(=O)(=O)c1cccc(-c2ccc3c(c2)COC2(CCNCC2)O3)c1` [CBK060990], the viability at 28.5 h, 10 µM amounted to 94.4%.
Still for that read-out and setting: under `CCc1ccc(C(=O)Nc2cccc(-c3ccc4c(c3)COC3(CCNCC3)O4)c2)cc1` [CBK093680] stands 67.5%.

One may read the viability as a read-out of living cells in per cent, often relative to untreated cells.
